Results published in article PMC11945657, “Microwave-Assisted Synthesis of Morpholine-Based Chalcones as Reversible MAO-A Inhibitors in the Management of Mental Depression” (Pharmaceuticals, 2025).
Read-outs that look alike come from different tables or passages of the source.

Experiments:
hMAO-A = target: T1, hMAO-A (Homo sapiens, UniProt P21397); assay: MAO inhibition assay (Amplex Red, fluorimetric), MAO-A
T1 sequence (P21397 1-527): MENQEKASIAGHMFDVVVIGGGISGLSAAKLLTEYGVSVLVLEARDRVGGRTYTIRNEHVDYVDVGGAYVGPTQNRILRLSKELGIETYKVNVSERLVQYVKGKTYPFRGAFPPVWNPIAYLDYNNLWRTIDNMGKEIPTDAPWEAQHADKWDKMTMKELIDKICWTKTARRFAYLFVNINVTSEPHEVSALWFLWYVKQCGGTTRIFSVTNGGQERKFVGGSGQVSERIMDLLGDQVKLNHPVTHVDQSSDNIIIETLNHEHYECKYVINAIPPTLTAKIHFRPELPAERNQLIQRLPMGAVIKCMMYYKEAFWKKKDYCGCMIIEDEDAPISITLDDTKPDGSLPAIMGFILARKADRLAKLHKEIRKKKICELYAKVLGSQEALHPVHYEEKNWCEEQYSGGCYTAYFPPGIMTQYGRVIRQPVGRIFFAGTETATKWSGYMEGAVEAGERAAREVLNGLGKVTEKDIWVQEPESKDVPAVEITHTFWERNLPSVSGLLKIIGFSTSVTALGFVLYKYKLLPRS

[1] = DPPH free radical scavenging antioxidant assay
Protocol: H2O2 produced during metabolic events in the brain may be crucial for signaling and metabolic functions. The compounds were screened to check their potential to inhibit ROS through the DPPH assay. […] However, further studies are required to confirm this effect.
The DPPH approach, which gauges the free radical scavenging activity, was used to evaluate the antioxidant properties of the compounds. The test was performed according to the literature method. The stock solution of DPPH (0.5 mM) was prepared, and methanol was used to create each dilution. The different concentrations (10, 25, 50, 75, and 100 μM) of the test compounds (C1–C15) were prepared and compared with the standard ascorbic acid. The percentage antioxidant activity of the compounds was calculated using the following formula: % Antioxidant activity = [(Aabsorbance − Atest)/Aabsorbance] × 100.

hMAO-B = target: T2, hMAO-B (Homo sapiens, UniProt P27338); assay: MAO inhibition assay (Amplex Red, fluorimetric), MAO-B
T2 sequence (P27338 1-520): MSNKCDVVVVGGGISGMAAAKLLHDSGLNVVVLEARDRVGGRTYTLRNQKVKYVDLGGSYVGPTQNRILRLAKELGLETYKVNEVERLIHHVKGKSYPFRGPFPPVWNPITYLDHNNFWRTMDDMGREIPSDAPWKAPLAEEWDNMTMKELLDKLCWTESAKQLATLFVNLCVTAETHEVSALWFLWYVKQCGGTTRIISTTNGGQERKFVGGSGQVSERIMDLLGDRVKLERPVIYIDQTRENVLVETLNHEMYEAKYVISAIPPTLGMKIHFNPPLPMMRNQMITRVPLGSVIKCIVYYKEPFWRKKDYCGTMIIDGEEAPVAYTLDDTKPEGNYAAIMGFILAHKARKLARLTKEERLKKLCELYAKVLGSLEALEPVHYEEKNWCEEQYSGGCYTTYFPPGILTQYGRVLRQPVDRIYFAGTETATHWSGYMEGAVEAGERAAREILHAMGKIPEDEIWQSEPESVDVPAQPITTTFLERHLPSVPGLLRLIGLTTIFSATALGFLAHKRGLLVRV

[2] = read-out: Percentage Inhibition at 20 μM MAO-A
[3] = read-out: Percentage Inhibition at 20 μM MAO-B
[4] = read-out: IC50 Values MAO-A, class symbol, IC50 not calculated
[5] = read-out: Percentage Inhibition at 20 μM MAO-A, 20 μM

SMILES	inhibition at 20 µM (hMAO-A; [2]) [%]	% Antioxidant Activity ([1]; 10 µM) [%]	% Antioxidant Activity ([1]; 25 µM) [%]	% Antioxidant Activity ([1]; 50 µM) [%]	% Antioxidant Activity ([1]; 75 µM) [%]	% Antioxidant Activity ([1]; 100 µM) [%]	inhibition at 20 µM (hMAO-B; read-out: IC50 Values MAO-B) [%]	inhibition at 20 µM (hMAO-B; [3]) [%]	inhibition at 20 µM (hMAO-A; [4]) [%]	inhibition at 20 µM (hMAO-A; [5]) [%]	IC50 (hMAO-A) [µM]	Percentage Inhibition at 20 μM MAO-A (hMAO-A; 20 μM) [%]	inhibition at 20 µM (hMAO-A; read-out: IC50 Values MAO-A) [%]
CCc1ccc(/C=C/C(=O)c2ccc(N3CCOCC3)cc2)cc1 [Compound C13, (E)-3-(4-Ethylphenyl)-1-(4-morpholinophenyl)prop-2-en-1-one]	7.25	2.54	15.55	41.40	22.18	66.87	< 50	17.5	–	–	–	–	–
Cc1cccc(/C=C/C(=O)c2ccc(N3CCOCC3)cc2)c1 [Compound C8, (E)-1-(4-Morpholinophenyl)-3-(m-tolyl)prop-2-en-1-one]	–	16.56	31.47	36.01	49.24	66.42	< 50	6.32	< 50	3.11	–	–	–
O=C(/C=C/c1ccccc1Cl)c1ccc(N2CCOCC2)cc1 [Compound C12, (E)-3-(2-Chlorophenyl)-1-(4-morpholinophenyl)prop-2-en-1-one]	–	3.03	19.54	40.88	44.56	35.95	< 50	23.9	–	67.7	9.35 ± 0.11	67.76	–
O=C(/C=C/c1cccc(F)c1)c1ccc(N2CCOCC2)cc1 [Compound C10, (E)-3-(3-Fluorophenyl)-1-(4-morpholinophenyl)prop-2-en-1-one]	–	17.09	21.05	34.56	42.27	32.62	< 50	12.4	< 50	33.9	–	–	–
COc1ccccc1/C=C/C(=O)c1ccc(N2CCOCC2)cc1 [Compound C11, (E)-3-(2-Methoxyphenyl)-1-(4-morpholinophenyl)prop-2-en-1-one]	–	13.89	16.00	40.26	27.09	36.45	< 50	18.6	< 50	21.1	–	–	–
C#CCN(C)CCCOc1ccc(Cl)cc1Cl [Clorgyline, clorgyline, reference compound]	95	–	–	–	–	–	–	–	–	–	–	–	–
Cc1ccccc1/C=C/C(=O)c1ccc(N2CCOCC2)cc1 [Compound C15, (E)-1-(4-Morpholinophenyl)-3-(o-tolyl)prop-2-en-1-one]	–	6.51	30.71	41.06	32.50	29.17	< 50	25.7	–	6.17	–	–	–
Cc1ccc(/C=C/C(=O)c2ccc(N3CCOCC3)cc2)cc1 [Compound C9, (E)-1-(4-Morpholinophenyl)-3-(p-tolyl)prop-2-en-1-one]	4.95	8.65	23.43	35.75	39.19	44.66	< 50	6.77	–	–	–	–	< 50
